Literature values in patent US8444622B2, “Device, system, and method for targeted delivery of anti-inflammatory medicaments to a mammalian subject” (The Invention Science Fund I, LLC, priority 2009, dated 2013).

COc1ccc2cc([C@H](C)C(=O)O)ccc2c1 [naproxen]
elimination from synovial fluid (appreciable drug concentrations may still be measurable after 24 hours): slow | time to steady-state in synovial fluid (once daily dosing of naproxen sodium): within a week | predicted accumulation ratio based on trough concentration (synovial fluid, once daily dosing of naproxen sodium): 2.4
